# In patent publication US20080009418A1, “Selective Inhibitors” (Alchemia LTD., priority 2004, published 2008):
# Tests used:
# Conditions in all cases: compound at 10 μM
# Human δ-opioid (DOP) = molecular target: T1, Human δ-opioid (DOP) (Homo sapiens, UniProt P41143); test: Radioligand binding, human δ-opioid (DOP) membranes, FlashPlate, [3H]-Bremazocine
# T1 construct: purchased Perkin Elmer Biosignal
# Procedure, shortened: (§1)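 Cloned human receptor membranes were coated onto FlashPlate wells and incubated with radioligand and compound (added from a 0.5 mM DMSO daughter plate) for 1 hour at room temperature in the dark. Scintillation counting gave percent inhibition, with DMSO defining total and reference ligand defining non-specific binding.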
# Human κ-Opioid (KOP) = molecular target: T2, Human κ-Opioid (KOP) (Homo sapiens, UniProt P41145); test: Radioligand binding, human κ-opioid (KOP) membranes, filtration, [3H]-Diprenorphine
# T2 construct: purchased Perkin Elmer Biosignal
# Procedure, shortened: (§2)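 Percent inhibition of radioligand binding measured on recombinant human membranes: NK1 with [125I]-Substance P, KOP with [3H]-Diprenorphine. Incubation 1 h at room temperature, then harvest onto 0.3% PEI-soaked filters, cold Tris-HCl pH 7.4 washes and scintillation counting; non-specific binding from reference ligand wells.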
# Human Melanocortin (MC3) = molecular target: T3, Human Melanocortin (MC3) (Homo sapiens, UniProt P41968); test: Radioligand binding, human melanocortin MC3 membranes, FlashPlate, [125I]-NDP-αMSH
# T3 construct: purchased Perkin Elmer Biosignal
# Procedure, shortened: as §1
# Human Melanocortin (MC4) = molecular target: T4, Human Melanocortin (MC4) (Homo sapiens, UniProt P32245); test: Radioligand binding, human melanocortin MC4 membranes, FlashPlate, [125I]-NDP-αMSH
# T4 construct: purchased Perkin Elmer Biosignal
# Procedure, shortened: as §1
# Human melanocortin (MC5) = molecular target: T5, Human melanocortin (MC5) (Homo sapiens, UniProt P33032); test: Radioligand binding, human melanocortin MC5 membranes, FlashPlate, [125I]-NDP-αMSH
# T5 construct: purchased Perkin Elmer Biosignal
# Procedure, shortened: as §1
# [1] = molecular target: T6, Human melanin-concentrating hormone (MCH1) (Homo sapiens, UniProt Q99705); test: Radioligand binding, human melanin-concentrating hormone MCH1 membranes, FlashPlate, [125I]-S36057
# T6 construct: purchased Perkin Elmer Biosignal
# Procedure, shortened: as §1
# Human μ-opioid (MOP) = molecular target: T7, Human μ-opioid (MOP) (Homo sapiens, UniProt P35372); test: Radioligand binding, human μ-opioid (MOP) membranes, FlashPlate, [3H]-Naloxone
# T7 construct: purchased Perkin Elmer Biosignal
# Procedure, shortened: as §1
# Human neurokinin (NK1) = molecular target: T8, Human neurokinin (NK1) (Homo sapiens, UniProt P25103); test: Radioligand binding, human neurokinin NK1 membranes, filtration, [125I]-Substance P
# T8 construct: purchased Perkin Elmer Biosignal
# Procedure, shortened: as §2
# [2] = molecular target: T9, Human neuropeptide Y (NPY-Y1) (Homo sapiens, UniProt P25929); test: Radioligand binding, human neuropeptide Y NPY-Y1 membranes, FlashPlate, [125I]-PYY
# T9 construct: purchased Perkin Elmer Biosignal
# T9 sequence (P25929 1-384): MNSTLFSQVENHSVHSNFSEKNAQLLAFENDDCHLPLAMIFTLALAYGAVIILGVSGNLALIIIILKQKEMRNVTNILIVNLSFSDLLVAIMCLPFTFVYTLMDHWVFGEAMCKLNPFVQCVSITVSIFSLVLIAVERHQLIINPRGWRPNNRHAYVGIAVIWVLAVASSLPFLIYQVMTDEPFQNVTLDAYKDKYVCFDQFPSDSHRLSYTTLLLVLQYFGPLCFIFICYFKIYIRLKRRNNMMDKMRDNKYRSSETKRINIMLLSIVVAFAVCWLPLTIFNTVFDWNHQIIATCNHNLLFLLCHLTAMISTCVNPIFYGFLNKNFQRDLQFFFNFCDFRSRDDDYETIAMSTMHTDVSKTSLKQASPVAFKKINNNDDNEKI
# Procedure, shortened: as §1
# Human opioid (ORL1) = molecular target: T10, Human opioid (ORL1) (Homo sapiens, UniProt P41146); test: Radioligand binding, human opioid ORL1 membranes, FlashPlate, [125I]-Nociceptin
# T10 construct: purchased Perkin Elmer Biosignal
# Procedure, shortened: as §1
# Mouse urotensin (mUR2) = molecular target: T11, Mouse urotensin (mUR2) (Mus musculus, UniProt Q8VIH9); test: Radioligand binding, mouse urotensin mUR2 membranes, FlashPlate, [125I]-Urotensin II
# T11 construct: purchased Perkin Elmer Biosignal
# T11 sequence (Q8VIH9 1-385): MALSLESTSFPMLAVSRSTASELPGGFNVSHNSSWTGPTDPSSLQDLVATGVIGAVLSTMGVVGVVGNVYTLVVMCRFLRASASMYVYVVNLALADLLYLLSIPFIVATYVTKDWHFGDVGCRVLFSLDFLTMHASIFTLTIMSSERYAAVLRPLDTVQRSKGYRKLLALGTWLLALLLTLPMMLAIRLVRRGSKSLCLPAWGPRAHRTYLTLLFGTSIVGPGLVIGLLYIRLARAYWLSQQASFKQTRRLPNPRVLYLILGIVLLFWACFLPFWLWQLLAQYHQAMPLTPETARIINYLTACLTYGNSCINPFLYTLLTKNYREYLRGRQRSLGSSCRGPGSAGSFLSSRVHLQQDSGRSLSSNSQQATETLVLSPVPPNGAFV
# Procedure, shortened: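 Cloned mouse urotensin (mUR2) receptor membranes from Perkin Elmer Biosignal were immobilized in FlashPlate microplates using a proprietary coating. Each well got 19.5 μl buffer, then 0.5 μl of DMSO, reference ligand, or compound. Adding 5 μl of [125I]-Urotensin II, diluted to 5× final concentration in binding buffer, started binding. Plates were sealed with TopSeal-A and incubated 1 hour at room temperature in the dark. Wells were counted for 30 seconds each on a TopCount after a 60-second delay, and percentage inhibition was calculated.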
# [3] = [3H]-Bremazocine, human DOP membranes
# [4] = [3H]-Diprenorphine, human KOP membranes
# [5] = [125I]-NDP-αMSH, human MC3 membranes
# [6] = [125I]-NDP-αMSH, human MC4 membranes
# [7] = [125I]-NDP-αMSH, human MC5 membranes
# [8] = [125I]-S36057, human MCH1 membranes
# [9] = [3H]-Naloxone, human MOP membranes
# [10] = [125I]-Substance P, human NK1 membranes
# [11] = [125I]-PYY, human NPY-Y1 membranes
# [12] = [125I]-Nociceptin, human ORL1 membranes
# [13] = [125I]-Urotensin II, mouse mUR2 membranes
# T8 sequence (P25103 whole entry): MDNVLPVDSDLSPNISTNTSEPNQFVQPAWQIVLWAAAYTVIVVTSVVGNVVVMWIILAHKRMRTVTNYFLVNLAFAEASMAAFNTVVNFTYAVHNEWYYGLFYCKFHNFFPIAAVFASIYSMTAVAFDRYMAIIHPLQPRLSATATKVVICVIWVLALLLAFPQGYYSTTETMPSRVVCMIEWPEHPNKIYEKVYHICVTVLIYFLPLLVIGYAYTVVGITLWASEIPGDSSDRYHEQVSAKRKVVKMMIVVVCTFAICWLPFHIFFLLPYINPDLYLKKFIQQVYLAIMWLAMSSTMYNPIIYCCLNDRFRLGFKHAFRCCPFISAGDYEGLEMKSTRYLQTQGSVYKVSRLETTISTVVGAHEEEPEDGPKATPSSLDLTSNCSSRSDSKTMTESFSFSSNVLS
# T2 sequence (P41145 whole entry): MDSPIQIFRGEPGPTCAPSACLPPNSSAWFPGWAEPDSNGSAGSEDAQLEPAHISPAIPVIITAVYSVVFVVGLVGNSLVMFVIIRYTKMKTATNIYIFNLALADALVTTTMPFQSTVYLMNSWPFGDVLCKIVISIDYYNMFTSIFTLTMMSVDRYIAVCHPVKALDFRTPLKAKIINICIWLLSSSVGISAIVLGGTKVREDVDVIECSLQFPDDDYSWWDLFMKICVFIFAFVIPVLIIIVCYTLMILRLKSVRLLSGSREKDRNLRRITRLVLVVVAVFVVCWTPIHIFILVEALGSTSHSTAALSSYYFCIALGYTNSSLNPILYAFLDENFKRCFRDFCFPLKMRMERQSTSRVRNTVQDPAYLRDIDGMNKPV
# T3 sequence (P41968 whole entry): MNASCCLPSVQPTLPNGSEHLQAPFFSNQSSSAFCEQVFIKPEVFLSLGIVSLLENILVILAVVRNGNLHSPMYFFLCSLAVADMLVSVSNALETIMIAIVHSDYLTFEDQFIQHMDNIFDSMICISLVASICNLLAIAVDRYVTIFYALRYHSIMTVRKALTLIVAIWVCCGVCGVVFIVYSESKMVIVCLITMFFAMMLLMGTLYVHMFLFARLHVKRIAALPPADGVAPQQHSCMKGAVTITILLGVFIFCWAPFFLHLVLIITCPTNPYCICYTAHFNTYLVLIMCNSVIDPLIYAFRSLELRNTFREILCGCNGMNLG
# T4 sequence (P32245 whole entry): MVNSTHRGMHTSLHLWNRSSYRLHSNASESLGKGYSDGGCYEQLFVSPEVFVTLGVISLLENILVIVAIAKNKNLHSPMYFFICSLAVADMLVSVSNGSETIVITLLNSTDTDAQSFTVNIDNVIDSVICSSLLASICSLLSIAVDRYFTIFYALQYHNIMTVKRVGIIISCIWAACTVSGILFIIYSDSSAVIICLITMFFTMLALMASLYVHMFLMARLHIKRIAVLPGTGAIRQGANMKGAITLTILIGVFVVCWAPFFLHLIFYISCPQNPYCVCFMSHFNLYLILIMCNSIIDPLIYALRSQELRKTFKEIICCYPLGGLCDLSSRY
# T10 sequence (P41146 whole entry): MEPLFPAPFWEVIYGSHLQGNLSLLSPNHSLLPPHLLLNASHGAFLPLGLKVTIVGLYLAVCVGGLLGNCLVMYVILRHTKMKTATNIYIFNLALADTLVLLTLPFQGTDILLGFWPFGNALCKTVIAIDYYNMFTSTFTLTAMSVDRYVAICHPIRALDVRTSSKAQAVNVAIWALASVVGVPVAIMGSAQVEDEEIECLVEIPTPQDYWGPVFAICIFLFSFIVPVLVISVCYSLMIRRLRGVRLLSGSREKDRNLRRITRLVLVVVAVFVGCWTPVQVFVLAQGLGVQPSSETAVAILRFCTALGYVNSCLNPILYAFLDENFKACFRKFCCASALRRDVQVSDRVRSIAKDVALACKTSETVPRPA
# T5 sequence (P33032 whole entry): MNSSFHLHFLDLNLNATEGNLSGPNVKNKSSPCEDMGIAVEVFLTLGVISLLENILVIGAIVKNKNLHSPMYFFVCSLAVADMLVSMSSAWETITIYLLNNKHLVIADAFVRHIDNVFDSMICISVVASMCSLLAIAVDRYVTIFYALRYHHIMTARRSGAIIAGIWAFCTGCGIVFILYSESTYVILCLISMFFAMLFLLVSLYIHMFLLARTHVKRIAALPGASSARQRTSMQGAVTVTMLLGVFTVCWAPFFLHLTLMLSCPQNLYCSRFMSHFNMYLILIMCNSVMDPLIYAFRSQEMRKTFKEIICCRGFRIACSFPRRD
# T7 sequence (P35372 whole entry): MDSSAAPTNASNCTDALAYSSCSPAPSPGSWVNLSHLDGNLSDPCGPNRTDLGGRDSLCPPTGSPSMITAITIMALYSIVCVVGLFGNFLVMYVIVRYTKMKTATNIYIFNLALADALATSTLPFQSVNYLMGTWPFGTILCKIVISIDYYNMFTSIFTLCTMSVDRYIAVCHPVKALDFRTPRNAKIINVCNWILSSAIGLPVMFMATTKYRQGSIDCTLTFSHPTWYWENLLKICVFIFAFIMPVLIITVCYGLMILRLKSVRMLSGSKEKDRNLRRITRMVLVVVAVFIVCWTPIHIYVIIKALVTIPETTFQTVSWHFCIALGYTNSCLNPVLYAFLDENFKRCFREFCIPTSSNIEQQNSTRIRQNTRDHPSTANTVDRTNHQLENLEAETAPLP
# T6 sequence (Q99705 whole entry): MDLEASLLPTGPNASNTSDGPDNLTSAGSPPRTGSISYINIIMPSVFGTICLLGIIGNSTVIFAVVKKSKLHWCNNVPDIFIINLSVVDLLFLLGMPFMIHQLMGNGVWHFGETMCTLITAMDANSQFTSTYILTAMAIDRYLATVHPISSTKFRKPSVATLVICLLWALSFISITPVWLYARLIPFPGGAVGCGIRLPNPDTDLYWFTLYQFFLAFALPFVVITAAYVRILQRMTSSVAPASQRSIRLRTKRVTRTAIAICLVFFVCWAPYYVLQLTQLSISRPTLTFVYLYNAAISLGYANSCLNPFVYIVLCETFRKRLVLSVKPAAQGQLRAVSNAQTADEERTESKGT
# T1 sequence (P41143 whole entry): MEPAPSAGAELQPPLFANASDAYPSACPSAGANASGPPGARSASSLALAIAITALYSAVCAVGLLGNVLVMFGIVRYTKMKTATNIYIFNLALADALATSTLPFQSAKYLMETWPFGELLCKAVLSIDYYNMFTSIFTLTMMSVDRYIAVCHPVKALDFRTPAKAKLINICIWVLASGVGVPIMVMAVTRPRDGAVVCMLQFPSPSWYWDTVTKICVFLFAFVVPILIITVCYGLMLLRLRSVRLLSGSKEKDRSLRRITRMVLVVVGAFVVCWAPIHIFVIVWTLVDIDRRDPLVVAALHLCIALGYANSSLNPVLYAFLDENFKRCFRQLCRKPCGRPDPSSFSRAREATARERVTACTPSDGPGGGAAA
smiles,measurement,setting,value
NCCC(=O)NC1C(OCc2ccc3ccccc3c2)OC(COCc2ccccc2)C(O)C1OCc1ccc2ccccc2c1 (stereo not shown) [compound 385],A1: inhibition of radioligand binding,Human δ-opioid (DOP); [3],− (“−” indicates less than 50% inhibition at 10 μM)
same,A2: inhibition of radioligand binding,Human κ-Opioid (KOP); [4],− (“−” indicates less than 50% inhibition at 10 μM)
same,A3: inhibition of radioligand binding,Human Melanocortin (MC3); [5],+ (“+” indicates greater than 50% inhibition at 10 μM)
same,A4: inhibition of radioligand binding,Human Melanocortin (MC4); [6],+ (“+” indicates greater than 50% inhibition at 10 μM)
same,A5: inhibition of radioligand binding,Human melanocortin (MC5); [7],+ (“+” indicates greater than 50% inhibition at 10 μM)
same,A6: inhibition of radioligand binding,[1]; [8],+ (“+” indicates greater than 50% inhibition at 10 μM)
same,A7: inhibition of radioligand binding,Human μ-opioid (MOP); [9],− (“−” indicates less than 50% inhibition at 10 μM)
same,A8: inhibition of radioligand binding,Human neurokinin (NK1); [10],+ (“+” indicates greater than 50% inhibition at 10 μM)
same,A9: inhibition of radioligand binding,[2]; [11],− (“−” indicates less than 50% inhibition at 10 μM)
same,A10: inhibition of radioligand binding,Human opioid (ORL1); [12],− (“−” indicates less than 50% inhibition at 10 μM)
same,A11: inhibition of radioligand binding,Mouse urotensin (mUR2); [13],− (“−” indicates less than 50% inhibition at 10 μM)
COCC1OC(OCc2ccccc2)C(NC(=O)CN)C(OCc2ccc3ccccc3c2)C1O (stereo not shown) [compound 188],A1: inhibition of radioligand binding,"Human δ-opioid (DOP); [3H]-Bremazocine, FlashPlate",− (“−” indicates less than 50% inhibition at 10 μM)
same,A2: inhibition of radioligand binding,"Human κ-Opioid (KOP); [3H]-Diprenorphine, filtration",− (“−” indicates less than 50% inhibition at 10 μM)
same,A3: inhibition of radioligand binding,"Human Melanocortin (MC3); [125I]-NDP-αMSH, FlashPlate",− (“−” indicates less than 50% inhibition at 10 μM)
same,A4: inhibition of radioligand binding,"Human Melanocortin (MC4); [125I]-NDP-αMSH, FlashPlate",− (“−” indicates less than 50% inhibition at 10 μM)
same,A5: inhibition of radioligand binding,"Human melanocortin (MC5); [125I]-NDP-αMSH, FlashPlate",− (“−” indicates less than 50% inhibition at 10 μM)
same,A6: inhibition of radioligand binding,"[1]; [125I]-S36057, FlashPlate",− (“−” indicates less than 50% inhibition at 10 μM)
same,A7: inhibition of radioligand binding,"Human μ-opioid (MOP); [3H]-Naloxone, FlashPlate",− (“−” indicates less than 50% inhibition at 10 μM)
same,A8: inhibition of radioligand binding,"Human neurokinin (NK1); [125I]-Substance P, filtration",+ (“+” indicates greater than 50% inhibition at 10 μM)
same,A9: inhibition of radioligand binding,"[2]; [125I]-PYY, FlashPlate",− (“−” indicates less than 50% inhibition at 10 μM)
same,A10: inhibition of radioligand binding,"Human opioid (ORL1); [125I]-Nociceptin, FlashPlate",− (“−” indicates less than 50% inhibition at 10 μM)
same,A11: inhibition of radioligand binding,"Mouse urotensin (mUR2); [125I]-Urotensin II, FlashPlate",− (“−” indicates less than 50% inhibition at 10 μM)
"COC[C@H]1OC(OCCc2ccccc2)[C@H](NC(=O)CCCN)[C@@H](OCc2ccc3ccccc3c2)[C@@H]1O (single isomer, unassigned) [compound 345]","A1: inhibition of radioligand binding, human δ-opioid (DOP)",Human δ-opioid (DOP); [3H]-Bremazocine,− (“−” indicates less than 50% inhibition at 10 μM)
same,"A2: inhibition of radioligand binding, human κ-opioid (KOP)","Human κ-Opioid (KOP); [3H]-Diprenorphine, 10 µM",− (“−” indicates less than 50% inhibition at 10 μM)
same,"A3: inhibition of radioligand binding, human melanocortin (MC3)","Human Melanocortin (MC3); [125I]-NDP-αMSH, 10 µM",− (“−” indicates less than 50% inhibition at 10 μM)
same,"A4: inhibition of radioligand binding, human melanocortin (MC4)","Human Melanocortin (MC4); [125I]-NDP-αMSH, 10 µM",− (“−” indicates less than 50% inhibition at 10 μM)
same,"A5: inhibition of radioligand binding, human melanocortin (MC5)","Human melanocortin (MC5); [125I]-NDP-αMSH, 10 µM",− (“−” indicates less than 50% inhibition at 10 μM)
same,"A6: inhibition of radioligand binding, human melanin-concentrating hormone (MCH1)","[1]; [125I]-S36057, 10 µM",− (“−” indicates less than 50% inhibition at 10 μM)
same,"A7: inhibition of radioligand binding, human μ-opioid (MOP)","Human μ-opioid (MOP); [3H]-Naloxone, 10 µM",− (“−” indicates less than 50% inhibition at 10 μM)
same,"A8: inhibition of radioligand binding, human neurokinin (NK1)",Human neurokinin (NK1); [125I]-Substance P,+ (“+” indicates greater than 50% inhibition at 10 μM)
same,"A9: inhibition of radioligand binding, human neuropeptide Y (NPY-Y1)",[2]; [125I]-PYY,− (“−” indicates less than 50% inhibition at 10 μM)
same,"A10: inhibition of radioligand binding, human opioid (ORL1)","Human opioid (ORL1); [125I]-Nociceptin, 10 µM",− (“−” indicates less than 50% inhibition at 10 μM)
same,"A11: inhibition of radioligand binding, mouse urotensin (mUR2)","Mouse urotensin (mUR2); [125I]-Urotensin II, 10 µM",− (“−” indicates less than 50% inhibition at 10 μM)
CO[C@H]1[C@H](O)[C@@H](COCc2ccc3ccccc3c2)OC(OCc2ccc3ccccc3c2)[C@@H]1NC(=O)CCNC(=N)N (stereo partly shown) [compound 71],A1 radioligand binding inhibition,Human δ-opioid (DOP); human δ-opioid (DOP) membranes,− (“−” indicates less than 50% inhibition at 10 μM)
same,A2 radioligand binding inhibition,Human κ-Opioid (KOP); human κ-opioid (KOP) membranes,+ (“+” indicates greater than 50% inhibition at 10 μM)
same,A3 radioligand binding inhibition,Human Melanocortin (MC3); human melanocortin MC3 membranes,+ (“+” indicates greater than 50% inhibition at 10 μM)
same,A4 radioligand binding inhibition,Human Melanocortin (MC4); human melanocortin MC4 membranes,+ (“+” indicates greater than 50% inhibition at 10 μM)
same,A5 radioligand binding inhibition,Human melanocortin (MC5); human melanocortin MC5 membranes,+ (“+” indicates greater than 50% inhibition at 10 μM)
same,A6 radioligand binding inhibition,[1]; human MCH1 membranes,+ (“+” indicates greater than 50% inhibition at 10 μM)
same,A7 radioligand binding inhibition,Human μ-opioid (MOP); human μ-opioid (MOP) membranes,+ (“+” indicates greater than 50% inhibition at 10 μM)
same,A8 radioligand binding inhibition,Human neurokinin (NK1); human neurokinin NK1 membranes,+ (“+” indicates greater than 50% inhibition at 10 μM)
same,A9 radioligand binding inhibition,[2]; human NPY-Y1 membranes,− (“−” indicates less than 50% inhibition at 10 μM)
same,A10 radioligand binding inhibition,Human opioid (ORL1); human ORL1 membranes,+ (“+” indicates greater than 50% inhibition at 10 μM)
same,A11 radioligand binding inhibition,Mouse urotensin (mUR2); mouse urotensin mUR2 membranes,− (“−” indicates less than 50% inhibition at 10 μM)
"NCCC(=O)NC1C(OCc2ccc(Cl)cc2)OC(COCc2ccc(Cl)cc2)C(O)C1OCc1ccc(Cl)cc1 (single isomer, unassigned) [compound 475]",A1: inhibition of radioligand binding,Human δ-opioid (DOP); [3],− (“−” indicates less than 50% inhibition at 10 μM)
same,A2: inhibition of radioligand binding,Human κ-Opioid (KOP); [4],− (“−” indicates less than 50% inhibition at 10 μM)
same,A3: inhibition of radioligand binding,Human Melanocortin (MC3); [5],− (“−” indicates less than 50% inhibition at 10 μM)
same,A4: inhibition of radioligand binding,Human Melanocortin (MC4); [6],+ (“+” indicates greater than 50% inhibition at 10 μM)
same,A5: inhibition of radioligand binding,Human melanocortin (MC5); [7],+ (“+” indicates greater than 50% inhibition at 10 μM)
same,A6: inhibition of radioligand binding,[1]; [8],− (“−” indicates less than 50% inhibition at 10 μM)
same,A7: inhibition of radioligand binding,Human μ-opioid (MOP); [9],− (“−” indicates less than 50% inhibition at 10 μM)
same,A8: inhibition of radioligand binding,Human neurokinin (NK1); [10],+ (“+” indicates greater than 50% inhibition at 10 μM)
same,A9: inhibition of radioligand binding,[2]; [11],− (“−” indicates less than 50% inhibition at 10 μM)
same,A10: inhibition of radioligand binding,Human opioid (ORL1); [12],− (“−” indicates less than 50% inhibition at 10 μM)
same,A11: inhibition of radioligand binding,Mouse urotensin (mUR2); [13],− (“−” indicates less than 50% inhibition at 10 μM)
